These results are taken from ChEMBL document CHEMBL3611990, “Identification of Purines and 7-Deazapurines as Potent and Selective Type I Inhibitors of Troponin I-Interacting Kinase (TNNI3K)” (J Med Chem, 2015).

For orientation: solubility means the concentration that dissolves in the medium under given conditions. Read a low solubility as a poorly soluble substance. One may read the IC50 as the concentration that gives 50% inhibition. A low value points to greater potency in that assay. One may read the clearance as the volume of plasma or blood freed of the substance per unit of time. The bioavailability is the share of a dose that reaches the circulation, judged against a reference dose that is usually intravenous. Read a low bioavailability as poor availability. What is called Kd is the constant that tells how readily two partners part at equilibrium.

Converted amounts (≈) assume the structure as drawn.

Series [1] is described as follows: Aqueous solubility of the compound. It is filed as physicochemical.
The target of series [2] is T1, Serine/threonine-protein kinase TNNI3K (Homo sapiens, UniProt Q59H18).
T1 sequence (Q59H18 whole entry): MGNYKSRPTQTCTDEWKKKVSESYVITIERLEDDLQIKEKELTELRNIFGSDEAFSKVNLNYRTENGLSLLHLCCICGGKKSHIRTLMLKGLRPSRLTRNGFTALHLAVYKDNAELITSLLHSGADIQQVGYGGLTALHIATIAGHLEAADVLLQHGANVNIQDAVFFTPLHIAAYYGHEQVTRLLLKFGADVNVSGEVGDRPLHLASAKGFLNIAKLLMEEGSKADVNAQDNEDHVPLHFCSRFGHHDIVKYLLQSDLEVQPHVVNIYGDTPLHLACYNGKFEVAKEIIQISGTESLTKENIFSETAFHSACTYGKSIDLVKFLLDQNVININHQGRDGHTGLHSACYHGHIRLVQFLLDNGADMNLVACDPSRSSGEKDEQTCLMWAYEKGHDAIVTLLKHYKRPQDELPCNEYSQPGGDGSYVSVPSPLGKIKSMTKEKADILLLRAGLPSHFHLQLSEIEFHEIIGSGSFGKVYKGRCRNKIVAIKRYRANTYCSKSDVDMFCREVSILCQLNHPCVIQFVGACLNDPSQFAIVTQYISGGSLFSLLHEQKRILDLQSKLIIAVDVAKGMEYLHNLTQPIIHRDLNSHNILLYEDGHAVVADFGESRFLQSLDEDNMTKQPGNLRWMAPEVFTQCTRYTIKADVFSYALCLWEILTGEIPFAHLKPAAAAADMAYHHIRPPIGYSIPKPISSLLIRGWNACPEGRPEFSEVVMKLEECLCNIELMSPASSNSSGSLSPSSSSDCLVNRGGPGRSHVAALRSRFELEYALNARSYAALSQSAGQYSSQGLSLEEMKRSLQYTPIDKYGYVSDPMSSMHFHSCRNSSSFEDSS
Kind of series: Displacement of 5-({[2-({[3-({4-[(5-hydroxy-2-methylphenyl)amino]-2-pyrimidinyl}amino)phenyl]carbonyl}amino)-ethyl]amino}carbonyl)-2-(6-hydroxy-3-oxo-3H-xanthen-9-yl)benzoic acid from His6-MBP-TEV-full length human TNNI3K expressed in Baculovirus expression system after 60 mins by fluorescence polarization assay. In general terms: In fluorescence polarisation assays a small probe gives low polarisation when free and higher when bound to something large.

Series [3] in a line: Plasma clearance in Sprague-Dawley rat at 1 mg/kg, iv by LC/MS/MS analysis. It is filed as ADME, organism-based.
Series [4] in a line: Volume of distribution at steady state in Sprague-Dawley rat by LC/MS/MS analysis. Format: ADME, organism-based. Conditions: in vivo, read-out: Vdss.
The nature of series [5]: Oral bioavailability in Sprague-Dawley rat by LC/MS/MS analysis. Format: ADME, organism-based. Conditions: in vivo.
A further series concerns Rattus norvegicus. Briefly: Dose normalized AUC in po dosed Sprague-Dawley rat by LC/MS/MS analysis. Format: ADME, organism-based. Particulars: in vivo.
For series [6], the target named is Serine/threonine-protein kinase B-raf (Homo sapiens, UniProt P15056, V600E). Kind of series: Inhibition of His6-tagged full length BRAF V600E mutant (2 to 766 residues) (unknown origin) expressed in Baculovirus expression system by BRAMA method.
Series [7] addresses T1, Serine/threonine-protein kinase TNNI3K. Kind of series: Inhibition of human myc-tagged TNNI3K autophosphorylation overexpressed in HEKMSRII cells preincubated for 30 mins followed by pervanadate solution addition measured after 20 mins by DELFIA. It is filed as cell-based.
For series [8] the target is unchanged. Kind of series: Binding affinity to TNNI3K (unknown origin).

Chain of Serine/threonine-protein kinase B-raf (P15056 2-766 V600E limits assumed): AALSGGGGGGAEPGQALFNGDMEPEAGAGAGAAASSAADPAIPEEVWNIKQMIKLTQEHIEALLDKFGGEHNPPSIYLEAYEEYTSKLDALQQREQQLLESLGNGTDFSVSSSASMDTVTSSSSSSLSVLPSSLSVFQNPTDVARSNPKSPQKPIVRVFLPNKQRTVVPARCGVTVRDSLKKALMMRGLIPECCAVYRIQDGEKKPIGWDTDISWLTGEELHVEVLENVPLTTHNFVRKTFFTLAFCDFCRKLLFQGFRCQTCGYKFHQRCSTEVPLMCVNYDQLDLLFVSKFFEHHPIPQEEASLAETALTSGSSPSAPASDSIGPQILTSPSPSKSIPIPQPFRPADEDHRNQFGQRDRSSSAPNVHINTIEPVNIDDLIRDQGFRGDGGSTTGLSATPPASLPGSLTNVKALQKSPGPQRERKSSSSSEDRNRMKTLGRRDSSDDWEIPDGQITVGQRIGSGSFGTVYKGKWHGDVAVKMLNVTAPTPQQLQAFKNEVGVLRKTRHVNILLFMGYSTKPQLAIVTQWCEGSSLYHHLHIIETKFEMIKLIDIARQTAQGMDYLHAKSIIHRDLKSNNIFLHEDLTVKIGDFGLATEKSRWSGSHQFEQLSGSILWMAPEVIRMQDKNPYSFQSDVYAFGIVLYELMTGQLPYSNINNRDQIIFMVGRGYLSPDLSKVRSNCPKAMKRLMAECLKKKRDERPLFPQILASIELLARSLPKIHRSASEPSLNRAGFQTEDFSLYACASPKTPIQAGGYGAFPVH

`CNS(=O)(=O)c1cccc(Nc2ncnc3[nH]ccc23)c1` gave a solubility in series [1] of 50 µM (≈ 15.2 µg/mL). The values for the concentration for half-maximal inhibition (IC50) in series [2] and in series [6] were 80 nM and 50 nM, respectively. Also, in series [3], the clearance is 68 mL/min/kg. Moreover, in series [4], the Vd was 1.4 L/kg. Further, the bioavailability in series [5] was 34%. In addition, in the series with Rattus norvegicus, the AUC/dose turned out to be 0.08 kg·h/L.
With `CNS(=O)(=O)c1cccc(Nc2ncnc3[nH]cc(Cl)c23)c1`, the IC50 in series [2] was 32 nM; in series [6] it was 13 nM. In addition, the clearance in [3] stood at 20 mL/min/kg. For the same compound, the Vd in [4] worked out at 0.45 L/kg. Further, in the series on Rattus norvegicus, the AUC/dose worked out at 0.39 kg·h/L.
In series [1], `CNS(=O)(=O)c1ccc(N(C)C)c(Nc2ncnc3[nH]ccc23)c1` came in with a solubility of 330 µM (≈ 114 µg/mL). Besides, the IC50 in series [2] came to 50 nM; in [7], 50 nM; in series [6], 6 nM. In addition, the clearance in series [3] was determined as 30 mL/min/kg. Besides, in series [5], the bioavailability came to 100%. Further, the AUC/dose in the series with Rattus norvegicus worked out at 0.59 kg·h/L.
In the case of `CNS(=O)(=O)c1cccc(Nc2ncnc3[nH]cc(Br)c23)c1`, the 50% inhibitory concentration (IC50) in series [2] amounted to 32 nM; in series [6], 5 nM. For the same compound, the clearance in series [3] came to 23 mL/min/kg. Further, the Vd in [4] came out at 0.63 L/kg. In the series with Rattus norvegicus, the AUC/dose came out at 0.55 kg·h/L.
Consider `CNS(=O)(=O)c1cccc(Nc2ncnc3[nH]cnc23)c1`, for which the half-maximal inhibitory concentration (IC50) in [2] turned out to be 500 nM; in [6], 32 nM. Further, in the series on Rattus norvegicus, the AUC/dose was determined as 0 kg·h/L. Moreover, the Kd in series [8] is 111 nM.
